Our source for the DC50 and Dmax values is patent publication US12599672B2, “KRAS proteolysis targeting chimeras” (PAQ Therapeutics Inc., priority 2023, dated 2026).

A value given as a limit tells only on which side of the number the result lay.

In one test the target is T1, KRAS G12D (Homo sapiens, UniProt P01116, G12D).
T1 construct: AsPc-1-KRAS (G12D)-HiBit-KI cell (Pharmaron); host or cells: AsPc-1-KRAS (G12D)-HiBit-KI cells (HiBiT knock-in at the endogenous KRAS locus)
In words: KRAS G12D HiBit assay. It is filed as cell-based. The conditions noted are these: AsPc-1-KRAS (G12D)-HiBit-KI cell, compound treatment for 24 hours; for DC50: absolute DC50. As for the experimental part:
Day 1. […] Allowed cells to reach approximately 80% confluence before splitting. Rinsed cultivated cells in T-75 flasks with 5 mL PBS (Solarbio, P1020-500). […] Inactivated trypsin by adding excessive serum containing medium. Harvested the cells from flask into cell culture medium and counted the cell number.
Day 2. Test compounds were dissolved at 0.3 mM in DMSO (Solarbio, D8371) as stock solution. […] Performed 3-fold, 10-points dilution via transferring 15 μL compound into 30 μL DMSO by using TECAN liquid handler (TECAN, Freedom EVO200).
Day 3. After compound treatment for 24 hours, removed the plate from incubators and equilibrated at room temperature for 15 minutes. Prepared the HiBit reagent (Promega, N3040) by mixing 10 mL of Nano-Glo®-HiBiT Lytic Buffer with 200 μL of Nano-Glo®-HiBiT Lytic Substrate and 100 μL of LgBiT Protein. Added 20 μL of HiBit reagent into each well of the cell plate and spun the plates at room temperature at 1,000 RPM for 1 minute.
The inhibition activity was calculated using the following formula:
(§1) [formula] where HC (high control) is obtained from cells treated with 0.1% DMSO only.

The next test concerns the target T2, KRAS G12V (Homo sapiens, UniProt P01116, G12V).
T2 construct: SW620-KRAS (G12V)-HiBit-KI cell (Pharmaron); host or cells: SW620-KRAS (G12V)-HiBit-KI cells (HiBiT knock-in at the endogenous KRAS locus)
In words: KRAS G12V HiBit assay. The conditions noted are these: SW620-KRAS (G12V)-HiBit-KI cells, compound treatment for 24 hours, class symbols. The class given is cell-based. How it is done: Day 1. […] Rinsed cultivated cells in T-75 flasks with 5 mL PBS (Solarbio, P1020-500). […] Inactivated trypsin by adding excessive serum containing medium. Harvested the cells from flask into cell culture medium and counted the cell number.
Day 2. Test compounds were dissolved at 0.3 mM in DMSO (Solarbio, D8371) as stock solution. […] Performed 3-fold, 10-points dilution via transferring 15 μL compound into 30 μL DMSO by using TECAN liquid handler (TECAN, Freedom EVO200). […] After compound treatment for 24 hours, the plate was removed from incubators and equilibrated at room temperature for 15 minutes. Prepare the HiBit reagent (Promega, N3040) by mixing 10 mL of Nano-Glo®-HiBiT Lytic Buffer with 200 μL of Nano-Glo®-HiBiT Lytic Substrate and 100 μL of LgBiT Protein. Added 20 μL of HiBit reagent into each well of the cell plate and spun the plates at room temperature at 1,000 RPM for 1 minute.
The degradation activity was calculated using the following formula:
as §1
Background: With HiBiT, luminescence reflects the tagged protein that the partner subunit can reach.

The mark [1] stands for this setting: numeric bounds given in place of class symbols.

T1 sequence (P01116 1-188 isoform P01116-2 G12D): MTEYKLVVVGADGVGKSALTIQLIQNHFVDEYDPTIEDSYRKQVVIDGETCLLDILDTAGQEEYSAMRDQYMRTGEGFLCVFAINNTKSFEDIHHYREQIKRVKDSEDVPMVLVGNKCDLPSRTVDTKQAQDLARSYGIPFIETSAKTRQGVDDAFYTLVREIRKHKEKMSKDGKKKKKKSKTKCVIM
T2 sequence (P01116 1-188 isoform P01116-2 G12V): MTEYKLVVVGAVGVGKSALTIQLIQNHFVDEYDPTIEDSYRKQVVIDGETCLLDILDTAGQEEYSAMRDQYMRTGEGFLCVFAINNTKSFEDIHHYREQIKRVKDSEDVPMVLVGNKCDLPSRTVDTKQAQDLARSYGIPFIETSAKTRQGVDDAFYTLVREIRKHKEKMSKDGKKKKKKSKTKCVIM

Take `C#Cc1c(F)ccc2cccc(-c3ncc4c(N5CCC[C@@](C)(O)C5)nc(OC[C@@]56CCCN5[C@H](COC(=O)N5CCC(COC7CN(c8ccc9c(c8)n(C)c(=O)n9C8CCC(=O)NC8=O)C7)CC5)CC6)nc4c3F)c12` (stereo partly shown) [Compound 153]: the DC50 at KRAS G12D (setting [1]) and at KRAS G12V was above 100 nM each time.
`C#Cc1c(F)ccc2cc(O)cc(-c3ncc4c(N5CCC[C@@](C)(O)C5)nc(OC[C@@]56CCCN5[C@H](COC(=O)N5CCC(N7CCC(c8cccc9c8n(C)c(=O)n9C8CCC(=O)NC8=O)CC7)CC5)CC6)nc4c3F)c12` (stereo partly shown) [Compound 148] yielded a DC50 at KRAS G12V above 100 nM.
Turning to `CCc1c(F)ccc2cc(O)cc(-c3ncc4c(N5CCC[C@@](C)(O)C5)nc(OC[C@@]56CCCN5[C@H](COC(=O)N5CCC(CN7CC(c8ccc9c(c8)n(C)c(=O)n9C8CCC(=O)NC8=O)C7)CC5)CC6)nc4c3F)c12` (stereo partly drawn) [Compound 395, ((3S,7aS)-7a-(((7-(8-ethyl-7-fluoro-3-hydroxynaphthalen-1-yl)-8-fluoro-4-((R)-3-hydroxy-3-methylpiperidin-1-yl)pyrido[4,3-d]pyrimidin-2-yl)oxy)methyl)hexahydro-1H-pyrrolizin-3-yl)methyl 4-((3-(1-(2,6-dioxopiperidin-3-yl)-3-methyl-2-oxo-2,3-dihydro-1H-benzo[d]imidazol-5-yl)azetidin-1-yl)methyl)piperidine-1-carboxylate], the DC50 at KRAS G12D (class symbols) is below 100 nM; at KRAS G12V, 10 to 100 nM.
Taken in the same sequence, the figures for `Cn1c(=O)n(C2CCC(=O)NC2=O)c2ccc(C3CCN(C4CC5(CCN(C(=O)OC[C@@H]6CC[C@]7(COc8nc(N9CCC[C@@](C)(O)C9)c9cnc(-c%10cc(O)cc%11cccc(Cl)c%10%11)c(F)c9n8)CCCN67)CC5)C4)CC3)cc21` (stereo partly drawn) [Compound 338, ((3S,7aS)-7a-(((7-(8-chloro-3-hydroxynaphthalen-1-yl)-8-fluoro-4-((R)-3-hydroxy-3-methylpiperidin-1-yl)pyrido[4,3-d]pyrimidin-2-yl)oxy)methyl)hexahydro-1H-pyrrolizin-3-yl)methyl 2-(4-(1-(2,6-dioxopiperidin-3-yl)-3-methyl-2-oxo-2,3-dihydro-1H-benzo[d]imidazol-5-yl)piperidin-1-yl)-7-azaspiro[3.5]nonane-7-carboxylate] were below 100 nM and below 10 nM.
Consider `C#Cc1c(F)ccc2cccc(-c3ncc4c(N5CCCC(C#N)CC5)nc(OC[C@@]56CCCN5[C@H](COC(=O)NCCOc5ccc7c(c5)n(C)c(=O)n7C5CCC(=O)NC5=O)CC6)nc4c3F)c12` (stereo partly drawn) [Compound 116, ((3S,7aS)-7a-(((4-(4-cyanoazepan-1-yl)-7-(8-ethynyl-7-fluoronaphthalen-1-yl)-8-fluoropyrido[4,3-d]pyrimidin-2-yl)oxy)methyl)hexahydro-1H-pyrrolizin-3-yl)methyl (2-((1-(2,6-dioxopiperidin-3-yl)-3-methyl-2-oxo-2,3-dihydro-1H-benzo[d]imidazol-5-yl)oxy)ethyl) carbamate], for which the DC50 is above 300 nM on KRAS G12D (class symbols) and above 100 nM at KRAS G12V.
In turn, `C[C@H]1CN(CCOCCOCCOc2cccc3c2n(C)c(=O)n3C2CCC(=O)NC2=O)CCCN1c1nccc(-c2noc([C@@]3(C)CCCc4sc(N)c(C#N)c43)n2)n1` (stereo partly shown) [Compound 220] gave a DC50 at KRAS G12V above 100 nM.
`CCc1c(F)ccc2cc(O)cc(-c3ncc4c(N5CCC[C@@](C)(O)C5)nc(OC[C@@]56CCCN5[C@H](COC(=O)N5CCC7(CC5)CC(N5CCC(c8ccc9c(c8)n(C)c(=O)n9C8CCC(=O)N(C)C8=O)CC5)C7)CC6)nc4c3F)c12` (stereo partly drawn) [Compound 491, ((3S,7aS)-7a-(((7-(8-ethyl-7-fluoro-3-hydroxynaphthalen-1-yl)-8-fluoro-4-((R)-3-hydroxy-3-methylpiperidin-1-yl)pyrido[4,3-d]pyrimidin-2-yl)oxy)methyl)hexahydro-1H-pyrrolizin-3-yl)methyl 2-(4-(3-methyl-1-(1-methyl-2,6-dioxopiperidin-3-yl)-2-oxo-2,3-dihydro-1H-benzo[d]imidazol-5-yl)piperidin-1-yl)-7-azaspiro[3.5]nonane-7-carboxylate]: the DC50 on KRAS G12V was above 100 nM.
Same read-out and setting: the value for `C[C@H]1CN(CCOCCOCCOc2ccc3c(c2)n(C)c(=O)n3C2CCC(=O)NC2=O)CCCN1c1nccc(-c2noc([C@@]3(C)CCCc4sc(N)c(C#N)c43)n2)n1` (stereo partly drawn) [Compound 202, (4S)-2-amino-4-(3-{2-[(2S)-4-{2-[2-(2-{[1-(2,6-dioxopiperidin-3-yl)-3-methyl-2-oxo-1,3-benzodiazol-5-yl]oxy}ethoxy)ethoxy]ethyl}-2-methyl-1,4-diazepan-1-yl]pyrimidin-4-yl}-1,2,4-oxadiazol-5-yl)-4-methyl-6,7-dihydro-5H-1-benzothiophene-3-carbonitrile] was above 100 nM.
The same measure, in the same setting: the value for `C[C@H]1CN(CCOCCOCCOc2ccc3c(c2)n(C)c(=O)n3C2CCC(=O)NC2=O)CCCN1c1nccc(-c2noc([C@]3(C)CCCc4sc(N)c(C#N)c43)n2)n1` (stereo partly shown) [Compound 217] was above 100 nM; that for `C[C@H]1CN(CCOCCOc2cccc3c2n(C)c(=O)n3C2CCC(=O)NC2=O)CCCN1c1nccc(-c2noc([C@@]3(C)CCCc4sc(N)c(C#N)c43)n2)n1` (stereo partly shown) [Compound 221] was above 100 nM.
On the same count and under the same terms, the value for `C[C@H]1CN(CCOCCOc2ccc3c(c2)n(C)c(=O)n3C2CCC(=O)NC2=O)CCCN1c1nccc(-c2noc([C@]3(C)CCCc4sc(N)c(C#N)c43)n2)n1` (stereo partly shown) [Compound 216] was above 100 nM; that for `C[C@H]1CN(CCOCCOCCOCCOc2cccc3c2n(C)c(=O)n3C2CCC(=O)NC2=O)CCCN1c1nccc(-c2noc([C@@]3(C)CCCc4sc(N)c(C#N)c43)n2)n1` (stereo partly shown) [Compound 219] was above 100 nM.
On KRAS G12D (class symbols), `C#Cc1c(F)ccc2cccc(-c3ncc4c(N5CCC[C@@](C)(O)C5)nc(OC[C@@]56CCCN5[C@H](COC(=O)NCCOCCOCCOCCOc5ccc7c(c5)n(C)c(=O)n7C5CCC(=O)NC5=O)CC6)nc4c3F)c12` (stereo partly drawn) [Compound 109, ((3S,7aS)-7a-(((7-(8-ethynyl-7-fluoronaphthalen-1-yl)-8-fluoro-4-((R)-3-hydroxy-3-methylpiperidin-1-yl)pyrido[4,3-d]pyrimidin-2-yl)oxy)methyl)hexahydro-1H-pyrrolizin-3-yl)methyl (2-(2-(2-(2-((1-(2,6-dioxopiperidin-3-yl)-3-methyl-2-oxo-2,3-dihydro-1H-benzo[d]imidazol-5-yl)oxy)ethoxy)ethoxy)ethoxy)ethyl) carbamate] registered a DC50 above 300 nM and a Dmax of 15 to 50%.
As for `C#Cc1c(F)ccc2cccc(-c3ncc4c(N5CCC[C@@](C)(O)C5)nc(OCC5(CN6CCC7(CC6)CC(N6CCC(c8cccc9c8n(C)c(=O)n9C8CCC(=O)NC8=O)CC6)C7)CC5)nc4c3F)c12` (stereo partly shown) [Compound 44], the DC50 on KRAS G12D (setting [1]) was above 100 nM.
On to `C[C@H]1CN(CCOCCOCCOCCOc2ccc3c(c2)n(C)c(=O)n3C2CCC(=O)NC2=O)CCCN1c1nccc(-c2noc([C@@]3(C)CCCc4sc(N)c(C#N)c43)n2)n1` (stereo partly drawn) [Compound 200, (4S)-2-amino-4-(3-(2-((2S)-4-(2-(2-(2-(2-((1-(2,6-dioxopiperidin-3-yl)-3-methyl-2-oxo-2,3-dihydro-1H-benzo[d]imidazol-5-yl)oxy)ethoxy)ethoxy)ethoxy)ethyl)-2-methyl-1,4-diazepan-1-yl)pyrimidin-4-yl)-1,2,4-oxadiazol-5-yl)-4-methyl-4,5,6,7-tetrahydrobenzo[b]thiophene-3-carbonitrile], for which the DC50 on KRAS G12V was above 100 nM.
As to `C#Cc1c(F)ccc2cccc(-c3ncc4c(N5CCC[C@@](C)(O)C5)nc(OCC5(CN6CCC(CN7CCN(c8ccc9c(c8)n(C)c(=O)n9C8CCC(=O)NC8=O)CC7)CC6)CC5)nc4c3F)c12` (stereo partly shown) [Compound 26], at KRAS G12D (class symbols), the DC50 is above 300 nM.
The same measure, in the same setting: then `C#Cc1c(F)ccc2cccc(-c3ncc4c(N5CCC[C@@](C)(O)C5)nc(OCC5(CN6CCN(CC7CCN(c8ccc9c(c8)n(C)c(=O)n9C8CCC(=O)NC8=O)CC7)CC6)CC5)nc4c3F)c12` (stereo partly shown) [Compound 24], with above 300 nM.
